{"source": "patent US5258185A", "about": "(priority 1989, dated 1993)", "origin": "cited, not measured here", "key": {"[1]": {"conditions": "e.g. incorporation in melts of high molecular polyethylene glycols"}, "[2]": {"assay": "not given", "remark": "listed apart in the source"}, "[3]": {"conditions": "extremely fine crystallizates, surface size 3 to 10 m^2 (DE-OS 23 48 334)"}}, "data": [{"smiles": "COc1ccc(Cl)cc1C(=O)NCCc1ccc(S(=O)(=O)NC(=O)NC2CCCCC2)cc1", "note": "[Glibenclamide, N-4-(5-chloro-[2-methoxy-benzamido)ethyl]phenylisulfonyl-N'-cyclohexyl urea]", "values": [{"measurement": "water solubility depending on pH", "setting": "acidic range", "result": "virtually water-insoluble"}, {"measurement": "solubility in alcohol", "setting": "alcohol", "result": "only moderately soluble"}, {"measurement": "solubility in chloroform", "setting": "chloroform", "result": "only moderately soluble"}, {"measurement": "solubility in ether", "setting": "ether", "result": "virtually insoluble"}, {"measurement": "solubility and dissolution rate with increase in surface", "setting": "[3]", "result": "increase in solubility and dissolution rate"}, {"measurement": "solubility in water", "setting": "water", "result": "virtually insoluble"}, {"measurement": "effect of processing at elevated temperatures on stability", "setting": "[1]", "result": "detrimental to stability"}, {"measurement": "bioavailability with increase in surface", "setting": "[2]; [3]", "result": "improving the bioavailability"}, {"measurement": "drug release and bioavailability of micronized glibenclamide", "setting": "[2]; micronized, mean particle size ±5 μm, above all in the presence of tensides", "result": "improved drug release and bioavailability"}]}]}
